Columns and labels:
[1] = target: T1, human 5-HT1A receptor (Homo sapiens, UniProt P08908); assay: [3H]8-OH-DPAT binding to human 5-HT1A receptor in CHO cell membranes
T1 construct: expressed in transfected cells
T1 sequence (P08908 1-422): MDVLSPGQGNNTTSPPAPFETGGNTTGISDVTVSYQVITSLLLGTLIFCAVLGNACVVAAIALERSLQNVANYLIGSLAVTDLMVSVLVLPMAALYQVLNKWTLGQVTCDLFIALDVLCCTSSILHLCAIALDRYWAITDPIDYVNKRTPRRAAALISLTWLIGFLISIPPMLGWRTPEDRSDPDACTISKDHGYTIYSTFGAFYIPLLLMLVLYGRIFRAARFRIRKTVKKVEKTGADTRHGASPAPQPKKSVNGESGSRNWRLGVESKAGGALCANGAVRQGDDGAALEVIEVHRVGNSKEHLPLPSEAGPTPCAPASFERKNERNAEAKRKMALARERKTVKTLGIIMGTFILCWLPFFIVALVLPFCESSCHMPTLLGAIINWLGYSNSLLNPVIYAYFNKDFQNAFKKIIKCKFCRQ
Description: The PCR cloning of the human 5-HT1A receptor subtype from a human genomic library has been described previously by Chanda et al., Mol. Pharmacol., 43:516 (1993). A stable Chinese hamster ovary cell line expressing the human 5-HT1A receptor subtype (5-HT1A.CHO cells) was employed throughout this study. Cells were maintained in DMEM supplemented with 10% fetal calf serum, non-essential amino acids and penicillin/ streptomycin.
Cells were grown to 95-100% confluency as a monolayer before membranes were harvested for binding studies. Cells were gently scraped from the culture plates, transferred to centrifuge tubes, and washed twice by centrifugation (2000 rpm for 10 min., 4° C.) in buffer (50 mM Tris; pH 7.5). The resulting pellets were aliquoted and maintained at -80.C. On the day of assay, the cells were thawed on ice, and resuspended in buffer. Studies were conducted using [^3 H]8-OH-DPAT as the radioligand. The binding assay was performed in 96 well microtiter plates in a final total volume of 250 μL of buffer. Comparison experiments were performed by using 7 concentrations of unlabelled drug and a final ligand concentration of 1.5 nM. Non-specific binding was determined in the presence of 10 μM 5HT. Saturation analysis was conducted by using [^3 H]8-OH-DPAT at concentrations ranging from 0.3-30 nM. […]

[2] = target: T2, serotonin transporter (Rattus norvegicus, UniProt P31652); assay: 3H-paroxetine binding, affinity for the serotonin transporter (ST) in frontal cortical membranes; design: species or system male Sprague-Dawley rats; settings: 1 h, @ 100 nM
T2 construct: frontal cortical membranes prepared from male Sprague-Dawley rats; from tissue; host or cells: frontal cortex membranes of male Sprague-Dawley rats
Description: A protocol similar to that used by Cheetham et al., Neuropharmacol., 32:737 (1993) was used to determine the affinity of compounds for the serotonin transporter. Briefly, frontal cortical membranes prepared from male Sprague-Dawley rats were incubated with ^3 H-paroxetine (0.1 nM) for 60 min at 25° C. All tubes also contained either vehicle, test compound (one to eight concentrations), or a saturating concentration of fluoxetine (10 μM) to define […]. All reactions were terminated by the addition of ice cold Tris buffer followed by rapid filtration using a Tom Tech filtration device to separate bound from free ^3 H-paroxetine. Bound radioactivity was quantitated using a Wallac 1205 Beta Plate® counter. Nonlinear regression analysis was used to determine IC50 values which were converted to Ki values using the method set forth in Cheng and Prusoff, Biochem. Pharmacol., 22:3099 (1973) (Ki=IC50/((Radioligand conc.)/(1+KD)).

T2 sequence (P31652 whole entry): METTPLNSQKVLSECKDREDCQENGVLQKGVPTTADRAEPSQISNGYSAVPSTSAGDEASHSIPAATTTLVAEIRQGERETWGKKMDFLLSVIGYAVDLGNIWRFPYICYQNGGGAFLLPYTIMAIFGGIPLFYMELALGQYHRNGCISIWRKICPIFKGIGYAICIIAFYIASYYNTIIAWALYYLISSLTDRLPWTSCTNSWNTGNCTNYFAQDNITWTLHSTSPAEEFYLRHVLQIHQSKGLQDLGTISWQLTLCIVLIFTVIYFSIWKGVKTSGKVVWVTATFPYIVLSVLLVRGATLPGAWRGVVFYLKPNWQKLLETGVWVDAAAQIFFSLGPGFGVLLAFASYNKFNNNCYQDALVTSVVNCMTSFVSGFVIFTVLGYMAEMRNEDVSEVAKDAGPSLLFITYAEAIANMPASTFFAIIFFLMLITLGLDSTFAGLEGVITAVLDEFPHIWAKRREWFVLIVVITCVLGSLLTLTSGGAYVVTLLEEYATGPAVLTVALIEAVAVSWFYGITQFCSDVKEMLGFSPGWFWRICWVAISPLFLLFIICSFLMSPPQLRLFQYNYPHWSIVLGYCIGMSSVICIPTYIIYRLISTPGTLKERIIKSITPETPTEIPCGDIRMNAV

| SMILES | inhibition at 1 µM ([1]; 0.5 h, @ 1000 nM, [3H]8-OH-DPAT) [%] | inhibition at 0.1 µM [2] [%] | Ki [1] [nM] |
| --- | --- | --- | --- |
| COc1ccsc1C1=CCN([C@H]2CC[C@@H](c3c[nH]c4ccc(F)cc43)CC2)CC1 [Example 1, 5-Fluoro-3-{(1,4-cis)-4-[4-(3-methoxy-thiophen-2-yl)-3,6-dihydro-2H-pyridin-1-yl]-cyclohexyl}-1H-indole] | 48 | – | – |
| COc1ccsc1C1=CCN([C@H]2CC[C@H](c3c[nH]c4ccc(F)cc43)CC2)CC1 [Example 2, 5-Fluoro-3-{(1,4-trans)-4-[4-(3-methoxy-thiophen-2-yl)-3,6-dihydro-2H-pyridin-1-yl]-cyclohexyl}-1H-indole] | – | 18 | 20.4 |

From patent US6200994A, “1,4-Disubstituted cyclohexane derivatives for the treatment of depression” (American Home Products Corp, priority 1999, dated 2001)
